Where a name gives a salt, the structure may show the parent alone.

The assay concerns the target T1, human B1 (Homo sapiens, UniProt P46663).
T1 construct: host or cells: CHO-K1
T1 sequence (P46663 1-353): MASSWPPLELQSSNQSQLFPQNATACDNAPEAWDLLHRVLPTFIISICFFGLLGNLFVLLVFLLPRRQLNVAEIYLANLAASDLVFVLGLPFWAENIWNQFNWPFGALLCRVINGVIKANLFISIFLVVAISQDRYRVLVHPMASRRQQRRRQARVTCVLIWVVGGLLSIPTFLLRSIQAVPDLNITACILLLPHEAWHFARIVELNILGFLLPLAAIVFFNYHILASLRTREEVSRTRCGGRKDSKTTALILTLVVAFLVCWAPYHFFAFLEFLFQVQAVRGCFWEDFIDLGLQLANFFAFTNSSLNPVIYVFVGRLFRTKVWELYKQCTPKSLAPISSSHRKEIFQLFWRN
Put plainly: Calcium flux assay for Bradykinin B1 antagonist, CHO-K1 cell line expressing human B1. The format is cell-based. The following applies: CHO-K1 cells expressing human B1, agonist Lys-(Des-Arg)-Bradykinin, read-out: Potency (IC50 value against human B1). In a few lines: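 CHO-K1 cells expressing human B1, loaded with 5 μM Fluo-4AM (2 h, 37° C) in HEPES buffer pH 7.4 with probenecid and 0.1% BSA, were preincubated 30 min at 25° C with compound (8 concentrations, triplicate, 1% DMSO) before B1 agonist addition. Ca2+ fluorescence monitored at 538 nm; background-normalized integrated values plotted against log antagonist concentration.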
(Calcium assays in cells follow changes in intracellular calcium, usually with a dye or a luminescent sensor.)
By IC50 is commonly meant the concentration that inhibits the measured activity by half. `COc1cc(C)c(S(=O)(=O)N(C)Cc2noc(C(=O)N3CCN(CCN4CCCC4)CC3)n2)c(C)c1` [Ex 308, 4-Methoxy-N,2,6-trimethyl-N-[(5-{[4-(2-pyrrolidin-1-ylethyl)piperazin-1-yl]carbonyl}-1,2,4-oxadiazol-3-yl)methyl]benzenesulfonamide]: the IC50 fell in the range of 100 to 1000 nM.

With `COc1cc(C)c(S(=O)(=O)N(C)Cc2noc(C(=O)N3CCN(CCCN(C)C)CC3)n2)c(C)c1` [Ex 309, N-{[5-({4-[3-(Dimethylamino)propyl]piperazin-1-yl}carbonyl)-1,2,4-oxadiazol-3-yl]methyl}-4-methoxy-N,2,6-trimethylbenzenesulfonamide], the IC50 is 10 to 100 nM.

On to `COc1cc(C)c(S(=O)(=O)N(C)Cc2noc(C(=O)N3CCC(CCN4CCCC4)CC3)n2)c(C)c1` [Ex 310, 4-Methoxy-N,2,6-trimethyl-N-[(5-{[4-(2-pyrrolidin-1-ylethyl)piperidin-1-yl]carbonyl}-1,2,4-oxadiazol-3-yl)methyl]benzenesulfonamide], for which the IC50 is under 10 nM.

Consider `COc1cc(C)c(S(=O)(=O)N(Cc2noc(C(=O)N3CCN(C4CCN(C)CC4)CC3)n2)C2CC2)c(C)c1` [Ex 311, N-Cyclopropyl-4-methoxy-2,6-dimethyl-N-[(5-{[4-(1-methylpiperidin-4-yl)piperazin-1-yl]carbonyl}-1,2,4-oxadiazol-3-yl)methyl]benzenesulfonamide], for which the IC50 was under 10 nM.

As to `COc1cc(C)c(S(=O)(=O)N(Cc2noc(C(=O)N3CCC(CCN4CCCC4)CC3)n2)C2CC2)c(C)c1` [Ex 312, N-Cyclopropyl-4-methoxy-2,6-dimethyl-N-[(5-{[4-(2-pyrrolidin-1-ylethyl)piperidin-1-yl]carbonyl}-1,2,4-oxadiazol-3-yl)methyl]benzenesulfonamide], the IC50 is under 10 nM.

For the compound `COc1cc(C)c(S(=O)(=O)N(Cc2noc(C(=O)N(C)Cc3nnc(CN4CCCC4)s3)n2)C2CC2)c(C)c1` [Ex 313, 3-({Cyclopropyl[(4-methoxy-2,6-dimethylphenyl)sulfonyl]amino}methyl)-N-methyl-N-{[5-(pyrrolidin-1-ylmethyl)-1,3,4-thiadiazol-2-yl]methyl}-1,2,4-oxadiazole-5-carboxamide], the IC50 is under 10 nM.

On to `COc1cc(C)c(S(=O)(=O)N(Cc2noc(C(=O)N3CCN(CC4CCN(C)CC4)CC3)n2)C2CC2)c(C)c1` [Ex 314, N-Cyclopropyl-4-methoxy-2,6-dimethyl-N-{[5-({4-[(1-methylpiperidin-4-yl)methyl]piperazin-1-yl}carbonyl)-1,2,4-oxadiazol-3-yl]methyl}benzenesulfonamide], for which the IC50 is under 10 nM.

For the compound `COc1cc(C)c(S(=O)(=O)N(Cc2noc(C(=O)N3CCN(CC4CCCN(C)C4)CC3)n2)C2CC2)c(C)c1` (centres unmarked) [Ex 315, N-Cyclopropyl-4-methoxy-2,6-dimethyl-N-{[5-({4-[(1-methylpiperidin-3-yl)methyl]piperazin-1-yl}carbonyl)-1,2,4-oxadiazol-3-yl]methyl}benzenesulfonamide], the half-inhibitory concentration (IC50) is 10 to 100 nM.

In the case of `COc1cc(C)c(S(=O)(=O)N(Cc2noc(C(=O)N3CCN(CCCN(C)C)CC3)n2)C2CC2)c(C)c1` [Ex 316, N-Cyclopropyl-N-{[5-([4-[3-(dimethylamino)propyl]piperazin-1-yl]carbonyl)-1,2,4-oxadiazol-3-yl]methyl}-4-methoxy-2,6-dimethylbenzenesulfonamide], the IC50 fell in the range of 10 to 100 nM.

`COc1cc(C)c(S(=O)(=O)N(Cc2noc(C(=O)N3CCN(CCCN4CCCC4)CC3)n2)C2CC2)c(C)c1` [Ex 317, N-Cyclopropyl-4-methoxy-2,6-dimethyl-N-[(5-{[4-(3-pyrrolidin-1-ylpropyl)piperazin-1-yl]carbonyl}-1,2,4-oxadiazol-3-yl)methyl]benzenesulfonamide]: the IC50 was under 10 nM.

On to `COc1cc(C)c(S(=O)(=O)N(Cc2noc(C(=O)N3CCN(CCN4CCCC4)CC3)n2)C2CC2)c(C)c1` [Ex 318, N-Cyclopropyl-4-methoxy-2,6-dimethyl-N-[(5-{[4-(2-pyrrolidin-1-ylethyl)piperazin-1-yl]carbonyl}-1,2,4-oxadiazol-3-yl)methyl]benzenesulfonamide], for which the IC50 was in the range of 10 to 100 nM.

As to `COc1cc(C)c(S(=O)(=O)N(C)Cc2noc(C(=O)N3CCN(CCCCN(C)C)CC3)n2)c(C)c1` [Ex 319, N-{[5-({4-[4-(Dimethylamino)butyl]piperazin-1-yl}carbonyl)-1,2,4-oxadiazol-3-yl]methyl}-4-methoxy-N,2,6-trimethylbenzenesulfonamide trifluoroacetate], the concentration for half-maximal inhibition (IC50) lay in the range of 100 to 1000 nM.

`COc1cc(C)c(S(=O)(=O)N(Cc2noc(C(=O)N3CCN(CCCCN(C)C)CC3)n2)C2CC2)c(C)c1` [Ex 320, N-Cyclopropyl-N-{[5-({4-[4-(dimethylamino)butyl]piperazin-1-yl}carbonyl)-1,2,4-oxadiazol-3-yl]methyl}-4-methoxy-2,6-dimethylbenzenesulfonamide trifluoroacetate]: the IC50 was 100 to 1000 nM.

`COc1cc(C)c(S(=O)(=O)N(C)Cc2nc(C(=O)N3CCN(CC4CCN(C)CC4)CC3)no2)c(C)c1` [Ex 321, 4-Methoxy-N,2,6-trimethyl-N-{[3-({4-[(1-methylpiperidin-4-yl)methyl]piperazin-1-yl}carbonyl)-1,2,4-oxadiazol-5-yl]methyl}benzenesulfonamide]: the IC50 lay within 100 to 1000 nM.

Turning to `COc1cc(C)c(S(=O)(=O)N(C)Cc2nc(C(=O)N3CCN(CCCCN(C)C)CC3)no2)c(C)c1` [Ex 322, N-{[3-({4-[4-(Dimethylamino)butyl]piperazin-1-yl}carbonyl)-1,2,4-oxadiazol-5-yl]methyl}-4-methoxy-N,2,6-trimethylbenzenesulfonamide trifluoroacetate], the half-maximal inhibitory concentration (IC50) was 100 to 1000 nM.

Consider `COc1cc(C)c(S(=O)(=O)N(C)Cc2nc(C(=O)N3CCN(Cc4cccnc4)CC3)no2)c(C)c1` [Ex 323, 4-Methoxy-N,2,6-trimethyl-N-[(3-{[4-(pyridin-3-ylmethyl)piperazin-1-yl]carbonyl}-1,2,4-oxadiazol-5-yl)methyl]benzenesulfonamide], for which the IC50 was 100 to 1000 nM.

For the compound `COc1cc(C)c(S(=O)(=O)N(C)Cc2nc(C(=O)N(C)Cc3cccc(CN4CCCC4)c3)no2)c(C)c1` [Ex 324, 5-({[(4-Methoxy-2,6-dimethylphenyl)sulfonyl](methyl)amino}methyl)-N-methyl-N-[3-(pyrrolidin-1-ylmethyl)benzyl]-1,2,4-oxadiazole-3-carboxamide trifluoroacetate], the 50% inhibitory concentration (IC50) lay within 10 to 100 nM.

As to `COc1cc(C)c(S(=O)(=O)N(C)Cc2nc(C(=O)N3CCN(CCCN4CCCC4)CC3)no2)c(C)c1` [Ex 325, 4-Methoxy-N,2,6-trimethyl-N-[(3-{[4-(3-pyrrolidin-1-ylpropyl)piperazin-1-yl]carbonyl}-1,2,4-oxadiazol-5-yl)methyl]benzenesulfonamide], the IC50 lay within 10 to 100 nM.

In the case of `COc1cc(C)c(S(=O)(=O)N(C)Cc2nnc(C(=O)N3CCN(CCN4CCCC4)CC3)s2)c(C)c1` [Ex 326, 4-Methoxy-N,2,6-trimethyl-N-[(5-{[4-(2-pyrrolidin-1-ylethyl)piperazin-1-yl]carbonyl}-1,3,4-thiadiazol-2-yl)methyl]benzenesulfonamide], the concentration for half-maximal inhibition (IC50) is 100 to 1000 nM.

With `COc1cc(C)c(S(=O)(=O)N(C)Cc2nnc(C(=O)N3CCN(CCCN4CCCC4)CC3)s2)c(C)c1` [Ex 327, 4-Methoxy-N,2,6-trimethyl-N-[(5-{[4-(3-pyrrolidin-1-ylpropyl)piperazin-1-yl]carbonyl}-1,3,4-thiadiazol-2-yl)methyl]benzenesulfonamide], the IC50 was 100 to 1000 nM.

The values are drawn from patent US8623859B2, “Bradykinin B1 antagonists” (Evotec AG, priority 2008, dated 2014).
